Experimental data as given in patent US12139505B2, “Compositions useful in therapy of autophagy-related pathologies, and methods of making and using the same” (The University of Toledo, priority 2017, dated 2024).

Legend:
RG2 glioma cells [1] = test: Autophagic flux assay (LC3-II western blot in the presence of bafilomycin-A1); type: cell-based, rat
Method: In the assay, cells are treated with subtoxic concentrations of bafilomycin-A, which blocks lysosomal acidification. This prevents autophagosome fusion with lysosomes at a specific point. For example, RG2 glioma cells (or other cell types) are “clamped” by addition of 10-50 nM bafilomycin-A1 to block autophagosome fusion with lysosomes and eliminate autophagy clearance. Then, autophagy flux is measured by the conjugation of phosphatidylethanolamine to LC3-I, yielding an electrophoretically separable LC3-II by western blot. LC3-II acts as a link between nascent autophagosomes and cargo being directed into these structures. An autophagy enhancer will increase LC3-II in the presence of bafilomycin, whereas a compound that inhibits autophagy completion will not do so. Thus, the L3A-I to LC3A-II conversion in the presence of bafilomycin-A1 constitutes a valid measure of autophagy.
For the assays, rat glioma cells RG2 (ATCC® CRL-2433™; RG2 cells) were cultured. […] The cells were then incubated for an additional 4 h. At termination, the cell culture medium was removed, cells were washed with PBS and lysed on ice in Pierce RIPA buffer containing protease and phosphatase inhibitors.
Western Blotting: The proteins were electrophoresed and wet-blotted to polyvinylidine difluoride membranes, blocked overnight in 4% bovine serum albumin, and developed using antibodies obtained from Cell Signaling Technology (L3A: cat #. 4599; ULK1: cat #. 8054, ULK1(p757): cat #. 6880).
RG2 glioma cells were treated without drug (first column in FIG. 8A) or 4 h with 50 nM bafilomycin-A1 (BAF), the indicated concentration of LK, or the phosphonate analog 2-isopropyl-LK-3-phosphonate. The western blot results are shown in FIG. 8A, where the lower band corresponds to LC3-II. An increase in the intensity of this band in the presence of bafilomycin-A1 indicates increased autophagic flux. […] Similar results are shown in FIG. 9 with respect to the LK-P compound 2-butyl-lanthionine-phosphonate (also referred to as 2-n-butyl-lanthionine-phosphonate or 2-n-butyl-LK-P).
RG2 glioma cells (American Tissue Type Collection, ATTC, Rockville MD USA) were treated for 4 h with 50 nM bafilomycin-A1 (previously dissolved to 1000× final concentration in dimethylsulfoxide). Thirty minutes after addition of bafilomycin, cells were treated with test agents at 100× final concentration. Cells were lysed in RIPA buffer containing protease and phosphatase inhibitors. Protein concentration was assayed and normalized to constant values (typically 5-7 mg/mL). Proteins were electrophoresed across 4-20% polyacrylamide gels and wet blotted onto polyvinylidine difluoride (PVDF) membranes. Proteins were blotted with commercially available antibodies against LC3.

RG2 glioma cells [2] = test: Proliferative capacity of glioma cells, tetrazolium reduction assay; type: cell-based, rat
Method: Biomarkers of autophagy have been positively correlated with relatively better prognosis (longer patient lifespan) in humans suffering from high grade glioma. Accordingly, phosphonate analogs were tested for ability to reduce replicative capacity in RG2 glioma cells wherein the compounds increase autophagy. Cells were plated at low density (approximately 25,000 cells/[…]) using general cell culture methods, and treated with logarithmic dilutions of test agent. After 24 or 48 hours, cell number was estimated by tetrazolium reduction assay using a commercially available kit (Promega Aqueous OneStep™). […] By 48 h the cells had largely achieved confluence and became somewhat contact inhibited, thus reducing the difference between control and treatment groups.

[3] = system: gmr-Gal4;UAS-C9orf72polyGR36 flies; test: Fly eye neurodegeneration assay, C9orf72 ALS model; type: in vivo, Drosophila melanogaster
Method: The base for the food was a cornmeal agar product, Nutri-fly BF (Genesee Scientific, Box of 10, 1-liter bags, Cat #66-112). In a 2 L beaker, 1 L of ultrapure water was heated to […], with the stir bar speed set to 600. To the beaker, one bag of Nutri-fly BF was added in small portions. The beaker was covered to maintain temperature (monitored with an inserted thermometer) while stirring as rapidly as possible until the temperature reached 97° C. The food was stirred at this temperature for 10 minutes using a wooden spoon/spatula, then allowed to cool to approximately 65° C. with continuous stirring (magnetic bar). At 65° C., while maintaining constant stirring, 12 mL of Tegosept was added followed by 7 mL of propionic acid solution. To be used as fly maintenance food, the food was allowed to cool to 55° C. and 4 mL of the food was aliquoted (to a depth of approximately 1 inch) into individual vials with mity drosophila plugs (VWR #75813-162 and #10054-506). For use as a drug delivery vehicle, the food was allowed to cool to room temperature while covered with aluminum foil, then sealed with parafilm stored at 4° C. […] To prepare the drug-infused-food, about half of the calculated food, accurately measured, was added to a 250 mL beaker, followed by the drug (no carrier solvent is used). […]

CCCCCCC1=C(P(=O)(O)O)N[C@H](C(=O)OCC)CS1 [2-n-hexyl-LKE-P]
concentration at which the compound is potent in stimulating autophagy (RG2 glioma cells [1]; RG2 cells, FIG. 32A): 0.1 µM | potency relative to known results for LKE (RG2 glioma cells [1]; RG2 cells, FIG. 32A): approximately 10 fold | autophagic flux / autophagy stimulation (LC3-II band in the presence of bafilomycin-A1) (RG2 glioma cells [1]; RG2 glioma cells, 4 h, 50 nM bafilomycin-A1, western blot): stimulate autophagy in RG2 cells | fewer cells (reduced replicative capacity) relative to cells treated with no drug (RG2 glioma cells [2]; 24 h, greater than or equal to 1 nM): at least 50% | concentration range of the minimum in cell number (RG2 glioma cells [2]; 48 h): 1 to 10 mM | replication of cultures (RG2 glioma cells [2]; first 24 h): replicated more slowly in the first 24 h | failure to eclose from the pupa ([3]; GR dipeptides at repeat number of 100 in the eyes): not able to rescue this phenotype | eye phenotype ([3]; polyGR36 in eyes, 1 and 2 mM in food throughout lifespan): alleviate the eye phenotype in a concentration-dependent manner
